Results taken from publication PMC4664883, “Selective targeting of nuclear receptor FXR by avermectin analogues with therapeutic effects on nonalcoholic fatty liver disease” (Scientific Reports, 2015).

Columns and labels:
[1] = test system: KK-Ay mice; assay: High-fat diet fed KK-Ay mice treated 14 days (liver histology, metabolic parameters, GTT, ITT); format: in vivo; conditions: KK-Ay mice, high-fat diet, i.p. once daily 14 days; avermectin analogues 1.3 mg/kg, GW4064 30 mg/kg
Procedure: To further confirm the lipid accumulation, we performed oil red O staining of the frozen liver sections (Fig. 2c).
10 weeks age KK-Ay mice and C57BL/6J, homozygous FXR deficient (FXR^–/–) mice were maintained under environmentally controlled conditions with free access to standard chow diet and water as described previously. Animal experiments were conducted in the barrier facility of the Laboratory Animal Center, Xiamen University, approved by the Institutional Animal Use and Care Committee of Xiamen University, China, and the methods were carried out in accordance with the approved guidelines. Mice were fed with high fat diet containing 60% fat, 20% protein and 20% carbohydrate (Research Diets, D12492, New Brunswick, USA), and the food intake were measured every second day. […] After 6 h fasting, mice were weighed and sacrificed. Livers were weighed and taken photos, and part of each liver was fixed in 4% paraformaldehyde. Liver histology characterization was analyzed by haematoxylin and eosin (H&E) staining with paraffin-embedded sections by standard procedures. Other tissues were collected and frozen in liquid nitrogen for use, and serums were collected to measure metabolite parameters.
Fresh liver tissues were embedded in optimum cutting temperature compound (OCT) and cryosectioned. The sections were fixed in 4% paraformaldehyde in PBS, and were stained with 0.3% oil red O according to standard procedures.
Mice treated with compounds for 10 days were fasted for 6 h with free access to water. For the glucose tolerance test (GTT), 1 g/kg of glucose was i.p. injected and blood glucose was measured with the Accu-Check Performa (Roche Applied Science, Mannheim, Germany) at 0, 30, 60, 90, 120,150 and 180 min. For the insulin tolerance test (ITT), 1 U/kg of recombinant human insulin (Novolin 30R; Novo Nordisk, Bagsvaerd, Denmark) was i.p. injected, and blood glucose was measured at 0, 30, 60, 120 and 150 min after insulin injection.
Serum glucose was analyzed using glucose oxidase method (Applygen, Beijing, China). Serum cholesterol and triglyceride were analyzed using Cholesterol Assay Kit and Triglyceride Assay Kit (Bioassay Systems, USA), respectively. Liver triglyceride was analyzed using Tissue triglyceride assay kit (Applygen, Beijing, China).

[2] = test system: FXR A291W mutation; assay: Reporter assay with mutated FXR; format: cell-based; conditions: 1 μM, Fig. 8e
[3] = test system: medaka eleutheroembryo; conditions: cited from earlier work
[4] = parameters: method as in PMID 10956205, PMID 25388536, PMID 19586769; conditions: in rat; cited from earlier work
[5] = test system: mice; parameters: method as in PMID 21632533; conditions: cited from earlier work
[6] = test system: FXR N283L mutation; assay: Reporter assay with mutated FXR; format: cell-based; conditions: 1 μM, Fig. 8e
Text: R331M mutation was supposed to strengthen the hydrophobic interactions by displacing the corresponding residue of polar arginine to a hydrophobic methionine (Fig. 8b). Accordingly, this mutation increased the ability to be activated by avermectin ligands (Fig. 8e). For H447F mutation, the corresponding residue of histidine with a side chain of imidazole group was replaced by the nonpolar phenylalanine with a side chain of benzene ring (Fig. 8c). […] N283L mutation disrupts a key hydrogen bond between FXR and avermectin compounds (Fig. 8d).

With CC(C)c1onc(-c2c(Cl)cccc2Cl)c1COc1ccc(/C=C/c2cccc(C(=O)O)c2)c(Cl)c1 [GW4064] the “hepatic lipid / steatosis by H&E staining of liver sections” value [1] was “slightly reduced the hepatic lipid”, the “lipid accumulation by oil red O staining of liver sections” value [1] was “slightly reduced the lipid accumulation” and the “liver morphology (colour)” value [1] was “a little fresh red”. The “transcriptional activity of A291W mutated FXR” value [2] was “abolished the transcriptional activity”, the hepatobiliary toxicity [3] was “hepatobiliary injury” and the t1/2 [4] was under 1 h. The “body weight and fat effect” value [5] was “weight gain and fat accumulation” and the “transcriptional activity of N283L mutated FXR” value [6] was “retained the ability to be activated”.
